Laboratory results: article PMC8113459, “Selective inhibition of cullin 3 neddylation through covalent targeting DCN1 protects mice from acetaminophen-induced liver toxicity” (Nature Communications, 2021)
Where “and” joins values, the source holds several entries; their conditions need not be identical. Equal values may be shown once. One block for each compound: values may come before it.

Key:
[1] = tested on: APAP-induced liver injury; assay: APAP-induced liver injury: alanine aminotransferase (ALT) level; assay type: in vivo, mouse; settings: single dose 400 mg/kg, IP
Procedure: (§1) The in vivo studies were performed under animal protocols (PRO00007499) and (PRO00006638) approved by the Institutional Animal Care & Use Committee of the University of Michigan, in accordance with the recommendations in the Guide for the Care and Use of Laboratory Animals of the National Institutes of Health. C57BL/6 WT mice (~8 weeks, male, normal chow) were purchased from the Jackson Laboratory and randomly divided into eight groups (8–9 mice per group) treated (IP) as follows: phosphate-buffered saline vehicle once per day for 3 days (G1), APAP alone a single dose at 400 mg/kg on day 1 (G2), DI-1859 alone 25 mg/kg once per day for 3 days (G3), DI-1859 alone 50 mg/kg once per day for 3 days (G4), pretreatment (1 day before the APAP administration) with DI-1859 at 25 mg/kg once per day for 3 days followed with APAP at 400 mg/kg on day (G5), pretreatment (1 day before the APAP administration) with DI-1859 at 50 mg/kg once per day for 3 days followed with APAP at 400 mg/kg on day (G6), APAP a single dose at 400 mg/kg (3 h before the first DI-1859 administration) followed with DI-1859 at 25 mg/Kg once per day for 3 days (G7), and APAP a single dose at 400 mg/kg (3 h before the first DI-1859 administration) followed with DI-1859 at 50 mg/Kg once per day for 3 days (G8).
(§2) To induce acute liver injury, animals received PBS or APAP (400 mg/kg, sigma, A7085) through I.P. injection at 12 p.m. and were sacrificed 48 h afterward. To examine the protective effect of DI-1859 (groups 5 and 6), animals were I.P. injected with compound for 3 consecutive days (9 a.m. on each day, starting 1 day before APAP administration). To examine the restorative effect of DI-1859 (groups 7 and 8), animals were I.P. injected with compound 3 h after APAP administration followed by two additional treatments (9 a.m. on the next 2 days). Body weight and blood glucose level measurement, along with blood sample collection, were performed at 12 p.m. on each day.
Blood glucose levels were determined using glucometers (Bayer Corp., Pittsburgh, PA). Plasma ALT activity was measured using an ALT reagent set (Pointe Scientific Inc., Canton, MI).

[2] = tested on: APAP-induced liver injury; assay: APAP-induced liver injury: ROS assay in liver tissue; assay type: in vivo, mouse; settings: G2: APAP 400 mg/kg, a single dose
Procedure: as §1, §2
Liver samples were homogenized in a lysis buffer and mixed with a dichlorofluorescein diacetate fluorescent probe (DCF, Sigma, D6883) to a final probe concentration of 5 µM for 1 h at 37 °C. DCF fluorescence was measured using a BioTek Synergy 2 Multi-Mode Microplate Reader (485 nm excitation and 527 nm emission).

[3] = Cell viability assay (WST-8), MDA-MB-231; assay type: cell-based, human; settings: human, MDA-MB-231 cells, replicates, read-out: cell viability relative to control
Procedure: (§3) Cell viability assay was performed as previously described. The effect of DCN1 inhibitors on cell growth was evaluated by a WST-8 [2-(2-methoxy-4-nitrophenyl)-3-(4-nitrophenyl)-5-(2,4-disulfophenyl)-2H-tetrazolium, monosodium salt assay (Dojindo Molecular Technologies, Inc). Cells (2000–3000 cells in each well) were seeded in 96-well tissue culture plates in medium (100 μL) and treated with serial dilution of DCN1 inhibitors for 3 days. At the end of incubation, WST-8 dye (20 μL) was added to each well and incubated for 1–3 h, then the absorbance was measured in a microplate reader (Molecular Devices) at 450 nm. Cell growth inhibition was evaluated as the ratio of the absorbance of the sample to that of the control. The values were inserted into Prism software, and the curves and the EC50 values were produced by Prism software.

MDA-MB-231 cells = assay: Cell viability assay (WST-8), MDA-MB-231; assay type: cell-based, human; settings: for cell viability relative to control: replicates
Procedure: as §3

[4] = Cell viability assay (WST-8), HCT116; assay type: cell-based, human; settings: human, HCT116 cells, replicates, read-out: cell viability relative to control
Procedure: as §3

HCT116 cells = assay: Cell viability assay (WST-8), HCT116; assay type: cell-based, human; settings: for cell viability relative to control: replicates
Procedure: as §3

U2OS cells = assay: Cell viability assay (WST-8), U2OS; assay type: cell-based, human; settings: for cell viability relative to control: replicates
Procedure: as §3

neddylation of cullin 3 [5] = assay: Western blot, cullin 3 neddylation in cells of different tissue types (U2OS, THLE2, MDA-MB-231, KYSE70, HCT116); assay type: cell-based, human
Procedure: (§4) Western blotting was performed as described previously. Treated cells were lysed by RIPA buffer supplemented with protease inhibitor. The expression level of indicated proteins was examined by immunoblotting analysis and GAPDH was used as the loading control. Antibodies were purchased commercially: cullin 1 (sc-17775, 1:500 dilution) and cullin 2 (sc-166506, 1:500 dilution) from Santa Cruz Biotech (Santa Cruz, CA); cullin 4A (PA5-14542, 1:1000 dilution), cullin 4B (PA5-50647, 1:1000 dilution), and DCN3 (DCUN1D3, PA5-44000, 1:1000 dilution) from Thermo Fisher Scientific (Wayne, MI); cullin 3 (2759, 1:1000), NRF2 (12721, 1:1000 dilution), HO-1 (70081, 1:1000 dilution), and Bim (2819, 1:1000 dilution) from Cell Signaling Technology (Boston, MA); DCN1 (GWB-E3D700, 1:1000 dilution) from GenWay Biotech (San Diego, CA); and cullin 5 (A302-173A, 1:500 dilution) from Bethyl Labs (Montgomery, TX). Results are representative of two independent experiments.

NRF2 protein = assay: Western blot, NRF2 protein accumulation in cells; assay type: cell-based, human; settings: 100 nM
Procedure: as §4

DCN1 = DCN1 (Homo sapiens, UniProt Q96GG9); assay: Intact-protein mass spectrometric analysis of covalent complex formation, Method A; assay type: binding; settings: for Percentage of the formation of covalent complex with DCN1 protein: 37 °C
Excerpt: MassHunter Qualitative Analysis software (Agilent) was used to analyze the data. Intact protein masses were obtained using the maximum entropy deconvolution algorithm. The mass spectrometry data in Supplementary Figs. 1–11 were generated by Method A.

neddylation of cullin 3 [6] = assay: Western blot, cullin 3 neddylation in U2OS cells; assay type: cell-based, human; settings: 24 h, Fig. 1c
Procedure: as §4

[7] = 10 min incubation, 1.2-fold excess inhibitor

DCN1, sequence (Q96GG9 58-259 limits assumed): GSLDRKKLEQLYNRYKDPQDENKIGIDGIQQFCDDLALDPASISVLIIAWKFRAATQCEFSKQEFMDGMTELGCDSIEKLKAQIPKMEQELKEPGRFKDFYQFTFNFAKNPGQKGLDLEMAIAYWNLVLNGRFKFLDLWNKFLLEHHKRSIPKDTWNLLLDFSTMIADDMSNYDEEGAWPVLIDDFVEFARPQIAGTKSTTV

Structure (SMILES): CC(=O)Nc1ccc(O)cc1 [APAP, acetaminophen]
hepatotoxicity in mice [1]: induced severe hepatotoxicity
ROS level in mouse liver tissue, mean [2]: 12.4435 A.U./ug
ROS level normalised to the mean of G1 (vehicle), mean [2]: 1.645

Structure (SMILES): CCC(=O)N[C@@H](Cc1nc2ccc(C(C)C)cc2s1)C(=O)N[C@H](CNC(=O)CCN1CCOCC1)C1CCCCC1 [DI-591]
viability at 72 h ([3]; conc 10, 72 h): 94.3%
viability at 72 h ([3]; conc 30, 72 h): 113%
viability at 72 h ([3]; conc 100, 72 h): 109%
viability at 72 h ([3]; conc 300, 72 h): 105%
viability at 72 h ([3]; conc 1000, 72 h): 94.9%
EC50 (MDA-MB-231 cells; Homo sapiens, MDA-MB-231, 72 h, read-out: EC50, cell growth inhibition): > 1000 nM
cell viability relative to control (MDA-MB-231 cells; conc 10, 72 h): 101.954 and 101.609
cell viability relative to control (MDA-MB-231 cells; conc 30, 72 h): 108.276 and 97.3563
cell viability relative to control (MDA-MB-231 cells; conc 100, 72 h): 100.345 and 97.5862
cell viability relative to control (MDA-MB-231 cells; conc 300, 72 h): 105.517 and 106.667
cell viability relative to control (MDA-MB-231 cells; conc 1000, 72 h): 102.644
viability at 72 h ([4]; conc 3, 72 h): 106%
viability at 72 h ([4]; conc 10, 72 h): 94.3%
viability at 72 h ([4]; conc 30, 72 h): 90%
viability at 72 h ([4]; conc 1000, 72 h): 94.3%
EC50 (HCT116 cells; Homo sapiens, HCT-116, 72 h, read-out: EC50, cell growth inhibition): > 1000 nM
cell viability relative to control (HCT116 cells; conc 3, 72 h): 106.068 and 106.647
cell viability relative to control (HCT116 cells; conc 10, 72 h): 94.7863 and 106.766
cell viability relative to control (HCT116 cells; conc 30, 72 h): 103.675 and 96.2874
cell viability relative to control (HCT116 cells; conc 100, 72 h): 92.6577 and 103.333 and 79.1617
cell viability relative to control (HCT116 cells; conc 300, 72 h): 90.9009 and 107.521 and 85.6886
cell viability relative to control (HCT116 cells; conc 1000, 72 h): 100.085 and 92.0359
EC50 (U2OS cells; Homo sapiens, U2OS, 72 h, read-out: EC50, cell growth inhibition): > 1000 nM
cell viability relative to control (U2OS cells; conc 10, 72 h): 113.521 and 92.8169 and 93.8028
cell viability relative to control (U2OS cells; conc 30, 72 h): 110.282 and 96.9014 and 89.8591
cell viability relative to control (U2OS cells; conc 100, 72 h): 112.958 and 95.2113 and 89.4366
cell viability relative to control (U2OS cells; conc 300, 72 h): 115.211 and 91.5493 and 99.0141
cell viability relative to control (U2OS cells; conc 1000, 72 h): 84.9296 and 111.127 and 85.7746

Structure (SMILES): C=C(CN(C)C)C(=O)NC[C@H](NC(=O)[C@@H](Cc1nc2ccc(C(C)C)cc2s1)NC(=O)CC)C1CCCCC1 [DI-1859DD]
times less potent than DI-1548 and DI-1859, respectively, on cullin 3 neddylation (neddylation of cullin 3 [5]): > 300 times
effect on the neddylation of cullin 3 (neddylation of cullin 3 [5]; 100–300 nM): no significant effect
accumulation of NRF2 protein (NRF2 protein): no obvious accumulation

Structure (SMILES): C=C(CCN1CCOCC1)C(=O)NC[C@@H](NC(=O)[C@H](Cc1nc2ccc(C(C)C)cc2s1)NC(=O)CC)C1CCCCC1 [compound 8]
potency in inhibition of cullin 3 neddylation compared with DI-591 (neddylation of cullin 3 [6]): much more potent than DI-591
covalent complex formation / reaction kinetics with DCN1 protein (in words) (DCN1): much slower reaction kinetics than 6 and 7
Percentage of the formation of covalent complex with DCN1 protein (DCN1; 60 min (1 h) incubation): 15%
Percentage of the formation of covalent complex with DCN1 protein (DCN1; 720 min (12 h) incubation): 100%

Structure (SMILES): C=C(Cn1ccnc1)C(=O)NC[C@@H](NC(=O)[C@H](Cc1nc2ccc(C(C)C)cc2s1)NC(=O)CC)C1CCCCC1 [compound 10]
potency in inhibition of cullin 3 neddylation compared with DI-1548 (neddylation of cullin 3 [5]; in cell, Supplementary Fig. 12): ten times less potent than DI-1548
covalent complex formation / reaction kinetics with DCN1 protein (in words) (DCN1): slower reaction kinetics with DCN1 than DI-1548 and DI-1859
Percentage of the formation of covalent complex with DCN1 protein (DCN1; [7]): 80%
Percentage of the formation of covalent complex with DCN1 protein (DCN1; 60 min (1 h) incubation): 100%
Percentage of the formation of covalent complex with DCN1 protein (DCN1; 180 min (3 h) incubation): 100%
Percentage of the formation of covalent complex with DCN1 protein (DCN1; 720 min (12 h) incubation): 100%

Further lines, with some results ahead:

covalent complex formation / reaction kinetics with DCN1 protein (in words) (DCN1): reaction kinetics similar to that of 3
Percentage of the formation of covalent complex with DCN1 protein (DCN1; [7]): 0%
Percentage of the formation of covalent complex with DCN1 protein (DCN1; 60 min (1 h) incubation): 0%
Percentage of the formation of covalent complex with DCN1 protein (DCN1; 180 min (3 h) incubation): 2%
Percentage of the formation of covalent complex with DCN1 protein (DCN1; 720 min (12 h) incubation): 30%
Structure (SMILES): CCC(=O)N[C@@H](Cc1nc2ccc(C(C)C)cc2s1)C(=O)N[C@H](CNC(=O)/C=C/CN(C)C)C1CCCCC1 [compound 5]

Percentage of the formation of covalent complex with DCN1 protein (DCN1; 60 min (1 h) incubation): 30%
Percentage of the formation of covalent complex with DCN1 protein (DCN1; 180 min (3 h) incubation): 50%
Percentage of the formation of covalent complex with DCN1 protein (DCN1; 720 min (12 h) incubation): 100%
Structure (SMILES): C=C(CCN(C)C)C(=O)NC[C@@H](NC(=O)[C@H](Cc1nc2ccc(C(C)C)cc2s1)NC(=O)CC)C1CCCCC1 [compound 9]
potency in inhibition of cullin 3 neddylation compared with DI-591 (neddylation of cullin 3 [6]): much more potent than DI-591
covalent complex formation / reaction kinetics with DCN1 protein (in words) (DCN1): much slower reaction kinetics than 6 and 7
